From US5618726A, “Biodegradable azo dyes” (priority 1994, dated 1997)

Tests used:
[1] = test system: P. chrysosporium; experiment: Mineralization of 14C-labeled dyes by shaken cultures; type: cell-based, Phanerochaete chrysosporium
Description: (§1) Agitated cultures containing 100,000 to 150,000 dpm of azo dye at a concentration of 200 mg/liter for P. chrysosporium and 50 mg/liter for S. chromofuscus were incubated at 37° C. for 20 days with shaking at 200 rpm. For each mineralization experiment six replicates-per-culture were run for P. chrysosporium and three replicates-per-culture for S. chromofuscus. Each culture flask contained a CO2 trap consisting of a small glass cup connected to the bottom of the rubber stopper. The cup contained 1 ml of 1N NaOH. Samples were taken every 2 days, and after each sampling cultures were flushed with 100% oxygen for 30 s. At the sampling time, the stopper was removed and the NaOH containing trapped CO2 was transferred to a 20-ml scintillation vial, and the cup was then rinsed twice with 1 ml of water. Two ml of rinse water were also transferred to the vial. Finally, 10 ml of Ecolite scintillation cocktail (ICN Biochemicals Inc., Irvine, Calif.) were added to each vial. Vials, after mixing, were stored in the dark for 24 h. The cpm of trapped radioactivity was then determined in a Packard Tri-Carb liquid scintillation analyzer, Model 1500, using the ^14 C quench standards and SIS numbers.
Either a charcoal-containing polyurethane sponge (Bio-Rad Laboratories, Richmond, Calif.) or 2-methoxyethanol was used to trap volatile organic compounds released during mineralization experiments. The sponge (1 cm^3) replaced the 1N NaOH solution in the small glass cap attached to the rubber stopper; other conditions were as before for the ^14 CO2 experiments. For scintillation counting, the charcoal sponges were dissolved in 1 ml of hyamine hydroxide contained in scintillation vials (1M solution in methanol; NEN Research Products, Boston, Mass.) held at 55° C. for 2 h. Ten ml of Ecolite scintillation cocktail were then added and the cpm was measured.
In the second procedure, cultures with CO2 traps were flushed with oxygen for 10 min, and the organic volatiles present were trapped in 10 ml of 2-methoxyethanol mixed with 10 ml Ecolite.
(§2) The removal of radioactivity from the media was determined by measuring the amount of ^14 C label in 0.1 ml of the medium at time 0 and 21 days for each culture. Uninoculated cultures were used as evaporation controls. […] At the end of each mineralization experiment, culture broths were acidified with 5 ml of 1M H3 PO4, fresh 1N NaOH was added to the trap, and the cultures were shaken overnight. No additional releases of ^14 CO2 were observed. The radioactivity assimilated by the cells was measured by solubilizing biomass harvested from each 21-day-old culture in an equal volume of hyamine hydroxide solution. Before solubilization, cells were washed three times with 50 ml of distilled water to remove adsorbed dyes. Ecolite 10 ml was added to the mixture, which was vortexed vigorously. To increase counting efficiency, the solution of biomass-hyamine-scintillation cocktail was further diluted 10 to 20 times with fresh Ecolite before counting.

[2] = test system: Streptomyces chromofuscus; experiment: as above; type: cell-based
Description: as §1, §2

[3] = test system: ligninase; experiment: Oxidation of dyes by P. chrysosporium ligninase (crude preparation); type: biochemical, Phanerochaete chrysosporium; details: crude enzyme, conditions specific for ligninase
Description: The peroxidase assay was carried out using a composition having a final volume of 1.0 ml. The reaction mixture contained 250 μl of 100 mM HEPES buffer (pH 8), 500 μl of 10 mM 2,4-dichlorophenol, 100 μl of 1 mM aminoantipyrine, 50 μl enzyme preparation and 100 μl 50 mM H2 O2. The reaction was initiated by the addition of hydrogen peroxide at 37° C. One unit of peroxidase activity was expressed as the amount of enzyme required for an increase of one absorbance-unit-per-minute at 510 nm. Assays of manganese peroxidase and of ligninase from P. chrysosporium were carried out as previously described by Paszczynski et al in "Manganese peroxidase of Phanerochaete chrysosporium: Purification," Methods Enzymol. 161:264-270, incorporated herein by reference. […] Biophys., 1986, 44:750-765. Preparation and assay of ligninase and manganese peroxidase from these P. chrysosporium cultures were carried out as previously reported by Paszczynski, et al., Methods Enzymol., 1988, 161:264-270. […] Purification," Methods Enzymol. 161:264-270. […] Cycle time was 30 seconds with the last measure after 15 minutes. […] The reaction conditions were the same as for acid yellow 9. No decolorization of the synthesized dyes by ligninase was detected.

[4] = test system: Phanerochaete chrysosporium; experiment: Substrate removal / decolorization by P. chrysosporium culture; type: cell-based; details: for % Decolorization, P. chrysosporium: 14 days
Description: Environ. Microbiol., 1981, 42:290-296), with the addition of 75 mg adenine (6-aminopurine) and 27 mg L-phenylalanine-per-liter. This addition accelerated the growth of the fungus without inhibiting ligninase activity. […] […] Cultures were incubated at 37° C. for 7 to 15 days with shaking (250 rpm). Solid agar media were also employed.

[5] = test system: Mn(II)-peroxidase; experiment: Oxidation of dyes by P. chrysosporium Mn(II)-peroxidase; type: biochemical, Phanerochaete chrysosporium; details: crude enzyme, conditions specific for Mn(II)-peroxidase
Description: The peroxidase assay was carried out using a composition having a final volume of 1.0 ml. The reaction mixture contained 250 μl of 100 mM HEPES buffer (pH 8), 500 μl of 10 mM 2,4-dichlorophenol, 100 μl of 1 mM aminoantipyrine, 50 μl enzyme preparation and 100 μl 50 mM H2 O2. The reaction was initiated by the addition of hydrogen peroxide at 37° C. One unit of peroxidase activity was expressed as the amount of enzyme required for an increase of one absorbance-unit-per-minute at 510 nm. Assays of manganese peroxidase and of ligninase from P. chrysosporium were carried out as previously described by Paszczynski et al in "Manganese peroxidase of Phanerochaete chrysosporium: Purification," Methods Enzymol. 161:264-270, incorporated herein by reference. […] Biophys., 1986, 44:750-765. Preparation and assay of ligninase and manganese peroxidase from these P. chrysosporium cultures were carried out as previously reported by Paszczynski, et al., Methods Enzymol., 1988, 161:264-270. […] Purification," Methods Enzymol. 161:264-270. […] Cycle time was 10 seconds, with the last measure after three minutes of incubation.

[6] = test system: S. chromofuscus A11
Description: (§3) Microbiol., 1984, 130:2905-2913.
(§4) Replicate sterile controls also were run in each experiment.
The Streptomyces were grown on the same media and under the same conditions as previously described. […] Thus, the spectrophotometric assays for substrates 1-12 were carried out at their specific isobastic points. Degradation was calculated as percent of substrates removed from culture broth, considering the evaporation factor (around 10%).

[7] = test system: S. rochei A10; type: cell-based; details: streptomyces rochei a10 culture, 336 h
From the text: as §3, §4

[8] = test system: S. chromofuscus A11 extracellular peroxidase; experiment: Oxidation of azo dyes by S. chromofuscus A11 crude enzyme preparation; type: biochemical, Streptomyces chromofuscus A11; details: pH 8, 37° C., H2O2
Description: Environ. Microbiol., 1988, 54:3057-3063. […] Microbiol. Biotechnol., 34:661-667. Incubation took place at 37° C. with shaking at 250 rpm. The culture supernatant was collected after 48 h incubation, and vacuum-filtered through Whatman no. 1 filter paper. The filtrate was concentrated approximately 40- to 50-fold by ultrafiltration through an Amicon ultrafiltration stirred cell (series no. 8000, Amicon Corp.) with a disc PM-10 filter (diameter, 76 mm). Protein in the concentrated filtrate was then precipitated from solution with 80% ammonium sulfate. The precipitate was collected by centrifugation (15 min, 10,000 rpm). The pellet was resuspended in 10 ml of 20 mM HEPES buffer (pH 8) and dialyzed overnight against the same buffer at 4° C. These preparations were then stored in 1-ml aliquots at -20° C. until used. Before using, the preparation was filtered through a NAP-25 Sephadex G-25 disposable column (Pharmacia) in order to separate a yellowish protein fraction from a pink low-molecular-weight fraction. The yellowish fraction was used as the source of enzyme. […] The reaction was started with the addition of 100 μl of 50 mM H2 O2 and was followed for 1 min at 37° C. Controls were run with no addition of H2 O2 or with the addition of the hemeperoxidase inhibitor KCN (final concentration 25 μM).

[9] = molecular target: T1, horseradish peroxidase type II (Armoracia rusticana, UniProt P00433); experiment: Oxidation of azo dyes by horseradish peroxidase preparation; type: biochemical; details: pH 8, 37° C., H2O2
T1 sequence (P00433 31-338): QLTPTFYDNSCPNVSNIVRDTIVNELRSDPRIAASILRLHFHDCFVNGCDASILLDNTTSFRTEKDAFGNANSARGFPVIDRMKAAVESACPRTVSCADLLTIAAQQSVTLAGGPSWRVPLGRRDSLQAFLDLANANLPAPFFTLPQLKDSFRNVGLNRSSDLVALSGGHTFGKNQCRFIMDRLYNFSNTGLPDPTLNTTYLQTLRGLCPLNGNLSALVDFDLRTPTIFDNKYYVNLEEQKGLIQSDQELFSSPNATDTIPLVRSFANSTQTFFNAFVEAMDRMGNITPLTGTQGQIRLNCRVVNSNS
Description: The reaction was started with the addition of 100 μl of 50 mM H2 O2 and was followed for 1 min at 37° C. Controls were run with no addition of H2 O2 or with the addition of the hemeperoxidase inhibitor KCN (final concentration 25 μM).

**Q.** For `O=S(=O)(O)c1ccc(N=Nc2ccc(O)c3ccccc23)cc1` [Azo dye 32, 4-(4-hydroxy-naphthylazo)-benzenesulfonic acid], which “Percentage of radioactivity recovered in CO2, P. chrysosporium” value ([1]; 21 days' growth, 200 mg/liter) is on record?
**A.** Its value is 19.7%.

**Q.** And the “Percentage of radioactivity recovered in biomass (cells), P. chrysosporium” value ([1]; 21 days' growth, 200 mg/liter)?
**A.** Its value is 4.0%.

**Q.** What about the “Percentage of radioactivity removed from the medium, P. chrysosporium” value ([1]; 21 days' growth, 200 mg/liter) of the same molecule?
**A.** Its value is 29.6%.

**Q.** What about the “Percentage of radioactivity recovered in CO2, Streptomyces chromofuscus” value ([2]; 21 days' growth, 50 mg/liter) of the same molecule?
**A.** Its value is 1.1%.

**Q.** What about the “Percentage of radioactivity recovered in biomass (cells), Streptomyces chromofuscus” value ([2]; 21 days' growth, 50 mg/liter) of the same molecule?
**A.** Its value is 7.0%.

**Q.** And the “Percentage of radioactivity removed from the medium, Streptomyces chromofuscus” value ([2]; 21 days' growth, 50 mg/liter)?
**A.** The value was 22.0%.

**Q.** What does the source list for `COc1cc(C)cc(N=Nc2ccc(S(=O)(=O)O)cc2)c1O` [compound 11]?
**A.** Oxidation rate of azo dyes, P. chrysosporium Ligninase [3]: 1.28 μmoles per minute per ml; Concentration of substrate after ten days cultivation with P. chrysosporium ([4]; beginning concentration 100 ppm): 6.795 ppm; Concentration of substrate after ten days cultivation with P. chrysosporium ([4]; beginning concentration 150 ppm): 14.416 ppm; Concentration of substrate after ten days cultivation with P. chrysosporium ([4]; beginning concentration 200 ppm): 30.075 ppm; Concentration of substrate after ten days cultivation with P. chrysosporium ([4]; beginning concentration 300 ppm): 21.765 ppm; % Decolorization, P. chrysosporium ([4]; initial concn 150 ppm): 70%; % Decolorization, P. chrysosporium ([4]; initial concn 300 ppm): 34%; Oxidation rate of azo dyes, P. chrysosporium Mn-peroxidase [5]: 1.06 μmoles per minute per ml; Degradation (%) after Streptomyces cultivation, strain A11 ([6]; streptomyces chromofuscus a11 culture, 336 h): 9%; Degradation (%) after Streptomyces cultivation, strain A10 [7]: 4%; Oxidation rate of azo dyes, S. chromofuscus peroxidase [8]: 0.33 μmoles per minute per ml; Oxidation rate of azo dyes, Horseradish peroxidase [9]: 0.15 μmoles per minute per ml

**Q.** How did the “Oxidation rate of azo dyes, P. chrysosporium Ligninase” value [3] turn out when `O=S(=O)(O)c1ccc(N=Nc2ccc(O)c3ccccc23)cc1` [compound 32] was run?
**A.** The value was 0.23 μmoles per minute per ml.

**Q.** And the “Oxidation rate of azo dyes, P. chrysosporium Mn-peroxidase” value [5]?
**A.** The value was 4.62 μmoles per minute per ml.

**Q.** And the “Decolorization of growth medium by S. chromofuscus A11” value ([6]; both 50 and 100 ppm)?
**A.** The value was “significantly decolorized”.

**Q.** And the “Oxidation rate of azo dyes, S. chromofuscus peroxidase” value [8]?
**A.** Its value is 2.62 μmoles per minute per ml.

**Q.** And the “Oxidation rate of azo dyes, Horseradish peroxidase” value [9]?
**A.** Its value is 3.91 μmoles per minute per ml.

**Q.** Which “Mineralization by the streptomycetes” value ([2]; 21-day incubation) does the source give for `COc1cc(N=Nc2ccc(N=N[14c]3[14cH][14cH][14c](S(=O)(=O)O)[14cH][14cH]3)cc2S(=O)(=O)O)ccc1O` [compound 35] here?
**A.** The value was “mineralized”.

**Q.** What does the source list for `O=S(=O)(O)[14c]1[14cH][14cH][14c](N=Nc2c(O)ccc3ccccc23)[14cH][14cH]1` [compound 36]?
**A.** Degradation began earlier than dye 37 ([1]; P. chrysosporium): 2 days; Degradation relative to dye 37 ([1]; P. chrysosporium, 21-day incubation): 2.5 times
